“Also recorded” adds a separate entry of the source.
What was measured:
[1] = biological target: SCV helicase (nsp13) ATPase activity (Severe acute respiratory syndrome coronavirus, UniProt P0C6X7); experiment: biochemical; design: species or system SARS coronavirus
[2] = biological target: SCV helicase (nsp13) unstimulated ATPase activity (Severe acute respiratory syndrome coronavirus, UniProt P0C6X7); format: biochemical, SARS coronavirus
[3] = biological target: SCV helicase helicase activity (Severe acute respiratory syndrome coronavirus, UniProt P0C6X7); format: biochemical, SARS coronavirus
[4] = biological target: E. coli DnaB helicase (Escherichia coli, UniProt P0ACB0); format: biochemical
[5] = system: SCV (strain GZ50) in FRhK-4 cells; format: cell-based, SARS coronavirus; conditions: 50 μM
[6] = system: SCV (strain GZ50) in FRhK-4 cells; experiment: microbe, parasite or virus in culture; format: cell-based, SARS coronavirus
[7] = system: FRhK-4 cells
[8] = system: SARS coronavirus (SCV); conditions: cited from earlier work

E. coli DnaB helicase, sequence (P0ACB0 whole entry): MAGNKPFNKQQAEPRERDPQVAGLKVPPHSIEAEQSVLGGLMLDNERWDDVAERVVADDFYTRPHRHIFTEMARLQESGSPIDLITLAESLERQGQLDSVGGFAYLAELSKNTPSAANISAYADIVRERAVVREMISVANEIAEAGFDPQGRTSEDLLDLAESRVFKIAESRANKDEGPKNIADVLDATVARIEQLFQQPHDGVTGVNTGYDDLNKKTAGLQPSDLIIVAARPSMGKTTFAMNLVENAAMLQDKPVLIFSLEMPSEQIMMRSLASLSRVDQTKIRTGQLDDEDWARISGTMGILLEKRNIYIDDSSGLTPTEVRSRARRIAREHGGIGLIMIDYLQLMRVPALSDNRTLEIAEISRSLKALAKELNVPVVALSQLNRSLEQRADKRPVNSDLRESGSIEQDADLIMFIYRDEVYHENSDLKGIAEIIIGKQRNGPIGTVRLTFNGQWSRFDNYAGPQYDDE

## Cc1ncc(CO)c(C23OC4(O)CC(O)(CC(O)(C4)O2)O3)c1O [bananin, 1-[3-hydroxy-5-(hydroxymethyl)-2-methyl-4-pyridinyl]-2,8,9-trioxaadamantane-3,5,7-triol]
[1]
  IC50: 2.3 µM
  Mechanism of inhibition of ATPase activity: noncompetitive inhibitor
[2]
  Inhibition of unstimulated basal ATPase activity: not an effective inhibitor; also recorded: Far weaker inhibition
[2]; 100 µM
  Inhibition of unstimulated basal ATPase activity at 100 µM: slight inhibition
[3]
  Inhibition of helicase activity (in words): effective inhibitors; also recorded: the best inhibitors of DNA-unwinding
[4]
  Inhibition of DnaB helicase: did not inhibit
[5]
  Cytopathic effects relative to control infection: distinctly reduced
[6]
  Reduction of viral titre: ~50%
  Viral titre: almost zero
  Viral titre, % of untreated control infection: below 10%
[6]; Severe acute respiratory syndrome coronavirus, FRhK-4, read-out: EC50 (antiviral, viral titre)
  EC50: < 10 µM
[7]
  Specificity index (CC50/EC50): over 39

## NC(=O)c1ncn([C@@H]2O[C@H](CO)[C@@H](O)[C@H]2O)n1 [ribavirin]
[8]
  Activity in cell culture: lack of activity

## COc1cc(CC(C)c2nc(C)c(O)c(C34OC5(O)CC(O)(CC(O)(C5)O3)O4)c2CO)ccc1O (racemic) [eubananin, 1-[6-[(2RS)-1-(4-hydroxy-3-methoxyphenyl)-2-propyl]-3-hydroxy-5-(hydroxymethyl)-2-methyl-4-pyridinyl]-2,8,9-trioxaadamantane-3,5,7-triol]
[1]
  IC50: 2.8 µM
[3]
  Inhibition of helicase activity (in words): effective inhibitors; also recorded: the best inhibitors of DNA-unwinding

## COc1cc(C23OC4(O)CC(O)(CC(O)(C4)O2)O3)ccc1O [vanillinbananin, 1-(4-hydroxy-3-methoxyphenyl)-2,8,9-trioxaadamantane-3,5,7-triol]
[1]
  IC50: 0.68 µM
[3]
  Inhibition of helicase activity (in words): effective inhibitors; also recorded: the best inhibitors of DNA-unwinding
